In PubChem BioAssay AID179 (DTP/NCI, 2004) one finds EC50, IC50 and outcome data, which are given here for 70 compounds.

This assay concerns CEM cells HIV-1 protection, formazan growth assay. The assay can be described thus: NCI AIDS Antiviral Assay. Conditions: for pIC50: measured here: growth of uninfected CEM cells. Summed up:
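CEM (human) cells, HIV-1 infected vs uninfected, 5-point dosing, formazan growth read-out. Retest threshold 50% protection.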

pEC50, pIC50: −log10 of the molar value. The source made the active and inactive calls.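 Rule for the calls: active = compounds giving half or more protection of infected cells from virus-caused growth loss, again on retest; inactive = the rest.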

As for `COC(=O)C1=COC2OC3C(C(C)O)C(=O)OC34C=CC1C24` (stereo unspecified), the pEC50 (usually the negative decadic logarithm of the EC50, by convention in mol/L) was below 3.23 and the pIC50 (as a rule, the IC50 on a negative log10 scale, so that one unit is a factor of ten) was 4.20.

With `O=C(Nc1ccc(C(F)(F)F)cc1[N+](=O)[O-])C(=O)C1NC(=S)NC1=O` (stereo unspecified), the pEC50 is below 4.02 and the pIC50 is below 4.02.

As for `OC(Cc1ccc2ccccc2n1)(C(F)(F)Cl)C(F)(F)Cl`, the pEC50 is below 3.70 and the pIC50 was 4.09.

Consider `O=C1C2=Cc3ccccc3OC2(O)Oc2cc3ccccc3cc21` (stereo unspecified), for which the pEC50 was below 3.70 and the pIC50 is 4.16.

Turning to `O=S(=O)(Cc1nc2ccccc2s1)c1nc2ccccc2s1`, the pEC50 was below 3.70 and the pIC50 is 5.32.

For `OC1C2[C@@H](O)CCCN2C[C@@H](O)[C@H]1O` (stereo partly specified), the pEC50 was below 3.70 and the pIC50 was below 3.70.

`N#C/C(=C(/C#N)c1ccccc1)c1ccccc1`: the pEC50 is below 3.70 and the pIC50 was below 3.70.

As for `O=CC[C@H]1C(=O)C[C@@H]2CCC[C@@H]21`, the pEC50 was below 3.10 and the pIC50 is 4.35.

Turning to `N#Cc1nc(-c2ccccn2)oc1N`, the pEC50 is below 3.70 and the pIC50 was below 3.70.

In the case of `O=C1CC2(CCN(CC3COc4ccccc4O3)CC2)C(=O)N1N1CCCCCC1` (stereo unspecified), the pEC50 was below 3.70 and the pIC50 was 4.14.

As for `CCCCCC=C(c1cc(Cl)c(OC)c(C(=O)OC)c1)c1cc(Cl)c(OC)c(C(=O)OC)c1`, the negative logarithm of the EC50 (pEC50) was 4.75 and the pIC50 is 4.54.

In the case of `C=C1C2CCC3(CCC4C5(C)CCCC4(CN(CC)C5)C3C2)C1O` (stereo unspecified), the result was inactive.

As for `CC(=O)Nc1ccc2c(C)c3c4ccccc4n(C)c3nc2n1`, the pEC50 is below 3.70 and the pIC50 is 5.28.

For `COC(=O)C12N=NN(c3ccccc3)C1(C(=O)OC)C1CCC2C1` (stereo unspecified), the pEC50 was below 3.70 and the pIC50 is below 3.70.

For the compound `CCOC(=O)c1c(C)nc2c3ccccc3c(C#N)c(C)n12`, the pEC50 is below 4.00 and the pIC50 was below 4.00.

On to `CCN(CC)CCCC(C)Nc1ccnc2cc(F)ccc12` (stereo unspecified) (tested in a mixture with another compound), for which the pEC50 was below 3.70 and the pIC50 is below 3.70.

On to `Nc1c(C(=O)N/N=C/c2ccccc2)sc(=S)n1-c1ccccc1`, for which the pEC50 was below 5.39 and the negative logarithm of the IC50 (pIC50) is below 5.39.

As to `COc1cc(Br)c(OC)c2c(OC)cc(C)cc12`, the pEC50 was below 3.70 and the pIC50 is 4.45.

Consider `CCCCC[C@H]1CCCCCCCCCC(=O)OC2C(O[C@@H]3OC(C)[C@H](OC(=O)[C@@H](C)CC)C(O[C@@H]4OC(C)[C@H](O)C(O)[C@@H]4O)[C@@H]3OC(=O)[C@H](C)CC)[C@H](OC3C(O)[C@@H](O)C(C)O[C@H]3O1)OC(CO)[C@H]2O` (stereo partly specified), for which the pEC50 is below 3.70 and the pIC50 is 4.95.

Regarding `O=C(c1ccc(Cl)cc1)c1ccc(N=[N+]([O-])c2ccc(C(=O)c3ccc(Cl)cc3)cc2)cc1`, the pEC50 is below 4.00 and the pIC50 was below 4.00.

On to `COc1ccc(CCC2c3cc(OC)c(OC)cc3CCN2C)cc1OC` (stereo unspecified), for which the pEC50 is below 3.17 and the pIC50 is 3.62.

Take `CCC1CCN=C(Cn2cc(C)c(=O)[nH]c2=O)N1` (stereo unspecified): the pEC50 was below 3.70 and the pIC50 is below 3.70.

As for `COc1cc(C2c3cc4c(cc3CCN2C(=O)c2ccccc2)OCO4)cc(OC)c1OC` (stereo unspecified), the pEC50 was below 3.70 and the pIC50 is 4.87.

With `COc1cc2c(c(O)c1OC)C(O)C1CCC(=O)N1C2c1ccc2c(c1)OCO2` (stereo unspecified), the pEC50 is below 3.70 and the pIC50 was 3.87.

As for `Cc1cc(C2(O)C=C(C(C)(C)C)C(=O)C(C(C)(C)C)=C2)c(C)cc1C1(O)C=C(C(C)(C)C)C(=O)C(C(C)(C)C)=C1`, the pEC50 is below 3.82 and the pIC50 is below 3.82.

As for `O=c1[nH]c2cc(Cl)ccc2c(O)c1Cc1c(O)c2ccc(Cl)cc2[nH]c1=O`, the pEC50 is below 4.00 and the pIC50 was 5.27.

As for `CN1C(=O)C(CCO)(C(C)(C)C)c2ccccc21` (stereo unspecified), the pEC50 is below 3.70 and the pIC50 is below 3.70.

On to `CCOC(=O)c1c2ccccc2n2c(=O)n(C)nnc12`, for which the pEC50 is below 3.70 and the negative-log IC50 (pIC50) is below 3.70.

As for `COC(=O)C(C)(C)C(OP1(=S)OCCN1C)=C(C)C` (stereo unspecified), the pEC50 was below 3.93 and the pIC50 was below 3.93.

`Nc1cc([As](=O)(O)O)ccn1`: the pEC50 is below 3.70 and the negative-log IC50 (pIC50) was below 3.70.

With `N#CCCC(CC#N)N1CCN(C(CC#N)CCC#N)CC1` (stereo unspecified), the pEC50 is below 3.70 and the pIC50 is below 3.70.

Turning to `O=[N+]([O-])c1ccc(/C=N/Nc2nnc3c4ccccc4c4ncccc4c3n2)o1`, the pEC50 was below 4.00 and the pIC50 was below 4.00.

As for `Cn1c(=O)ccc2cc(C(=O)c3ccccc3)ccc21`, the pEC50 is below 3.72 and the pIC50 was 4.40.

For the compound `C=CCOc1ccccc1N=N/C(C#N)=N\Nc1ccccc1OCC=C`, the pEC50 was below 3.70 and the pIC50 is 3.96.

As for `COC(=O)Cc1c([C@H]2[C@H](CC(=O)OC)c3ccccc3N2C(=O)C(F)(F)F)[nH]c2ccccc12`, the pEC50 is below 3.70 and the negative logarithm of the IC50 (pIC50) is 4.56.

Consider `C=C(C)CNC(=S)N(N)c1ccc2ccccc2c1`, for which the pEC50 was below 3.70 and the pIC50 is 4.23.

As to `C1CSCCCSCCCSCCCSC1`, the pEC50 is below 4.47 and the pIC50 was below 4.47.

As to `C/C=C/CC1(CC)Oc2cccnc2-n2cccc2C1=O` (stereo unspecified), the pEC50 was below 3.70 and the pIC50 is below 4.00.

Consider `Cc1ccc2c(c1)S(=O)c1cc(C)ccc1S2`, for which the result was inactive and the pIC50 was 4.84.

For the compound `N#CC(C#N)=C1/C(=C/C=C/C=C/C=C/c2ccc(N3CCCCC3)s2)S(=O)(=O)c2ccccc21`, the pEC50 is below 3.70 and the pIC50 is 4.03.

On to `O=Nc1ccc(C=C2C(=O)C=CC2=O)cc1`, for which the pEC50 was below 3.70 and the pIC50 was 4.99.

In the case of `Cc1cc(C)c(NS(=O)c2ccc(Cl)cc2)c(C)c1` (stereo unspecified), the pEC50 is below 4.47 and the pIC50 is below 4.47.

For the compound `CSCS(=O)C[C@H](CO)NC(=O)/C=C/c1c(C)[nH]c(=O)[nH]c1=O` (stereo partly specified), the pEC50 was below 3.16 and the negative logarithm of the IC50 (pIC50) was 6.35.

Consider `OCC(CO)C1c2cccc3ccc4cccc1c4c23`, for which the result was inactive.

Take `Nc1ccc(S(=O)(=O)Cc2ccc(C(=O)O)cc2)cc1`: the pEC50 is below 3.49 and the pIC50 is below 3.49.

On to `COc1cc(C(=O)O)ccc1O`, for which the pEC50 was below 3.70 and the pIC50 was below 3.70.

In the case of `CC1(C)Oc2ccc3c(=O)cc(-c4cccs4)oc3c2C1C(=O)O` (stereo unspecified), the pEC50 was below 3.70 and the pIC50 was below 3.70.

Regarding `O=C1N=NC(=O)N1c1ccccc1`, the pEC50 is below 3.70 and the pIC50 was below 3.70.

For the compound `COc1ccc(C2=C(c3ccccc3)C(=O)C(c3ccccc3)=C2c2ccccc2)cc1`, the outcome was inactive.

Consider `Cc1ccc(-n2c(Cn3nnc(-c4cccnc4)n3)nn(C3OC(COC(=O)c4ccccc4)C(OC(=O)c4ccccc4)C3OC(=O)c3ccccc3)c2=S)cc1` (stereo unspecified), for which the pEC50 was below 3.70 and the pIC50 was below 3.70.

For the compound `CCc1ccc(/C(C#N)=C/c2cccc3ccccc23)cc1`, the pEC50 is below 3.70 and the pIC50 is 4.57.

Take `Cn1c(=O)c2[nH]c(SSc3nc4c([nH]3)c(=O)n(C)c(=O)n4C)nc2n(C)c1=O`: the pEC50 is 4.45 and the pIC50 is 3.79.

On to `COC(=O)OCC1C=CC(n2cnc3c(Cl)ncnc32)CC1` (stereo unspecified), for which the pEC50 was below 3.70 and the pIC50 was 4.94.

`COc1cccc2c1[C@H]1OC(=O)NC1CCCCC2` (stereo partly specified): the pEC50 was below 3.70 and the pIC50 was below 3.70.

Consider `C=C(C)[C@@H]1CC[C@]2(CNC(=O)CC3(CC(=O)O)CCCC3)CC[C@]3(C)[C@H](CC[C@@H]4[C@@]5(C)CC[C@H](NC(=O)CC6(CC(=O)O)CCCC6)C(C)(C)[C@@H]5CC[C@]43C)[C@@H]12`, for which the pEC50 was below 3.70 and the pIC50 was 4.87.

Take `O=C(Cn1c(=O)cc(Nc2ccccc2)c2ccccc21)Nc1ccccc1`: the pEC50 is below 3.70 and the pIC50 is 4.05.

As for `Cn1c(COc2ccc(/C=N\N3CCN(/N=C\c4ccc(OCc5c[n+]6ccccc6n5C)cc4)CC3)cc2)c[n+]2ccccc12`, the pEC50 was 5.20 and the pIC50 was 5.12.

As for `O=C(Sc1sc(=S)sc1SC(=O)c1ccccc1)c1ccccc1`, the pEC50 was below 4.75 and the negative-log IC50 (pIC50) was below 4.75.

Consider `CSc1c(C#N)c(N)n(-c2ccc(Cl)cc2)c(=O)c1C#N`, for which the pEC50 is 4.17 and the pIC50 was 4.14.

On to `Cc1oc2cc(O)ccc2c(=O)c1-c1ccccc1Br`, for which the pEC50 is below 3.70 and the negative logarithm of the IC50 (pIC50) is 4.78.

For the compound `S=C(N/N=C/c1ccccn1)Nc1ccc(Cl)cc1`, the pEC50 is below 5.70 and the pIC50 is 7.05.

Regarding `COc1cc(C(=O)C(CO)Oc2ccccc2OC)ccc1O` (stereo unspecified), the pEC50 was below 3.10 and the pIC50 was 3.91.

For the compound `Cc1cc(C)c(S(=O)(=O)N(CCCCN)OCCCN)c(C)c1`, the pEC50 was below 3.70 and the pIC50 was 4.55.

In the case of `N#CC(C#N)=c1[nH]c2cccc3c2-c2c(cccc2c3=C(C#N)C#N)[nH]1`, the result was inactive.

As to `CN(C)[C@@H]1C(=O)C(C(=O)NCNC2(C(=O)O)CCCC2)=C(O)[C@@]2(O)C(=O)C3=C(O)c4c(O)cccc4[C@@](C)(O)[C@H]3C[C@@H]12`, the pEC50 was below 3.67 and the pIC50 is 3.93.

For the compound `CN(C)c1ccc(C=Cc2ccc([N+](=O)[O-])cc2)cc1.[C-]#[O+].[C-]#[O+].[C-]#[O+].[Cr]`, the pEC50 was below 4.70 and the pIC50 was 5.62.

As to `CCCCCCCSc1ccc(/C=C(\C#N)c2ccc(OCCN(CC)CC)cc2)cc1`, the pEC50 was below 4.00 and the negative-log IC50 (pIC50) was 5.73.

Take `O=C1c2ccccc2-c2nc(-c3ccccc3)cc3c2c1nc1ccccc13`: the pEC50 is below 3.70 and the pIC50 is 4.52.

As for `O=C(/C=C/c1ccc([N+](=O)[O-])cc1)c1ccccc1`, the pEC50 is below 5.39 and the pIC50 is below 5.39.

Take `Cc1nc(C)c(C(=O)NNC(=O)Cc2ccccc2)cc1C(=O)NNC(=O)Cc1ccccc1`: the pEC50 is below 3.70 and the pIC50 is below 3.70.
